{"source": "patent EP4488277A1", "about": "“NOVEL BISPIDINE-BASED METAL CHELATING LIGANDS DISPLAYING GOOD RELAXIVITY” (Université de Strasbourg, priority 2023, dated 2025)", "origin": "cited, not measured here", "details": "pH of 7.4, 60 MHz, 25°C"}
{"compound": "CNC[C@H](O)[C@@H](O)[C@H](O)[C@H](O)CO.O=C([O-])CN1CCN(CC(=O)[O-])CCN(CC(=O)O)CCN(CC(=O)[O-])CC1.[Gd+3]", "note": "[Dotarem®, gadoterate meglumine]", "values": [{"measurement": "relaxivity r1", "value": 3.7, "unit": "mM⁻¹ s⁻¹"}]}
